Laboratory results taken from ChEMBL document CHEMBL5154840, “Development of novel dipeptide nitriles as inhibitors of rhodesain of Trypanosoma brucei rhodesiense” (Eur J Med Chem, 2022).
Values belong to the compound of their own block, whether it stands above or below them. Active and inactive are the calls of the source. The calls are words filed in the database; no cut-off is given here.

Columns and labels:
[1] = tested on: Trypanosoma brucei brucei; test: Antitrypanosomal activity against Trypanosoma brucei brucei measured after 24 hrs by ATPlite assay; format: functional, organism-based
[2] = tested on: Trypanosoma brucei brucei; test: Antitrypanosomal activity against Trypanosoma brucei brucei measured after 48 hrs by ATPlite assay; format: functional, organism-based
Rhodesain = Rhodesain (Trypanosoma brucei rhodesiense, UniProt Q95PM0); test: Inhibition of full length Trypanosoma brucei rhodesiense rhodesain expressed in pichia pastoris using Cbz-Phe-Arg-AMC as substrate measured for 10 mins by fluorometric enzyme assays
Rhodesain, sequence (Q95PM0 whole entry): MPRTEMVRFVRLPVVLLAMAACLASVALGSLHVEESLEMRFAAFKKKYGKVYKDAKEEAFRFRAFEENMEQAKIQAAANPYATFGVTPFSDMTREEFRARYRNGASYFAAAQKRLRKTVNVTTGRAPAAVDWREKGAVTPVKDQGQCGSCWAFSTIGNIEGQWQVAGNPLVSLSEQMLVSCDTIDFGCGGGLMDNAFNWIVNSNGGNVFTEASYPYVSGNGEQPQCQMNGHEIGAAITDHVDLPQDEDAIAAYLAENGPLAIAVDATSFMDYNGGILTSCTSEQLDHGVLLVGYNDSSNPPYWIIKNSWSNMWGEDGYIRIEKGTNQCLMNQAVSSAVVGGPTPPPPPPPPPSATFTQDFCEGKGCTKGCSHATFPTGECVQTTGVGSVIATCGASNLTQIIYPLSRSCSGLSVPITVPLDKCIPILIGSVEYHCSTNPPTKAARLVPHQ

[3] = molecular target: Rhodesain (Trypanosoma brucei rhodesiense) (UniProt Q95PM0); test: Competitive inhibition of Trypanosoma brucei rhodesiense rhodesain expressed in pichia pastoris using varying concentration of Cbz-Phe-Arg-AMC as substrate by fluorometric enzyme assays
Rhodesain (Trypanosoma brucei rhodesiense), sequence (Q95PM0 1-450): as the sequence (Q95PM0 whole entry) above

EC50 [1]: 18.7 µM | EC50 [2]: 23.4 µM
Compound: N#C[C@H](CCc1ccccc1)NC(=O)[C@H](Cc1ccccc1)NC(=O)c1ccc(F)cc1F

Compound: CC(C)C[C@H](NC(=O)c1cccc(F)c1)C(=O)N[C@H](C#N)CCc1ccccc1
Ki (Rhodesain): 0.016 µM | inhibition [3]: Active | EC50 [1]: 10.1 µM | EC50 [2]: 14.1 µM

Compound: N#C[C@H](CCc1ccccc1)NC(=O)[C@H](Cc1ccccc1)NC(=O)c1ccccc1F
Ki (Rhodesain): 0.112 µM | EC50 [1]: 10.3 µM | EC50 [2]: 11.6 µM

Compound: N#C[C@H](CCc1ccccc1)NC(=O)[C@H](Cc1ccccc1)NC(=O)c1cccc(F)c1
Ki (Rhodesain): 0.072 µM | EC50 [1]: 9.1 µM | EC50 [2]: 9.4 µM

Compound: N#C[C@H](CCc1ccccc1)NC(=O)[C@H](Cc1ccccc1)NC(=O)c1c(F)cccc1F
Ki (Rhodesain): 0.122 µM | EC50 [1]: 5.3 µM | EC50 [2]: 8.8 µM

Compound: CC(C)C[C@H](NC(=O)c1ccc(F)cc1F)C(=O)N[C@H](C#N)CCc1ccccc1
Ki (Rhodesain): 0.066 µM | EC50 [1]: 19.3 µM | EC50 [2]: 22.5 µM

Compound: N#C[C@H](CCc1ccccc1)NC(=O)[C@H](Cc1ccccc1)NC(=O)c1ccc(F)cc1
Ki (Rhodesain): 0.07 µM | EC50 [1]: 10.6 µM | EC50 [2]: 14.5 µM

Compound: CC(C)C[C@H](NC(=O)c1c(F)cccc1F)C(=O)N[C@H](C#N)CCc1ccccc1
Ki (Rhodesain): 0.052 µM | EC50 [1]: 18.6 µM | EC50 [2]: 27.1 µM

Compound: CC(C)C[C@H](NC(=O)c1ccccc1F)C(=O)N[C@H](C#N)CCc1ccccc1
Ki (Rhodesain): 0.032 µM | EC50 [1]: 21.1 µM | EC50 [2]: 32 µM

Compound: CC(C)C[C@H](NC(=O)c1ccc(F)cc1)C(=O)N[C@H](C#N)CCc1ccccc1
Ki (Rhodesain): 0.052 µM | EC50 [1]: 13.3 µM | EC50 [2]: 18.7 µM
